The results in this text go back to patent US20250127896A1, “CHIMERIC TIM4 RECEPTORS AND USES THEREOF” (CERO THERAPEUTICS HOLDINGS, INC., priority 2021, published 2025).

In assay [1] the test system is Kuramochi cells. The conditions noted are these: 1.56 or 25 μM Niraparib, 48 hours. The method, then: (§1) FIG. 7A: Flow cytometry measurement of surface PtdSer. Kuramochi cells were treated with 1.56 or 25 μM Niraparib or with equivalent volume of DMSO (control). 48 hours later samples were trypsinized and stained using a Tim4-Fc followed by a fluorescently-labeled secondary antibody to the Tim4-Fc. FIG. 7B: Kuramochi cells pre-treated for ˜20 hours with 1.56 μM Niraparib were co-cultured with pCTX133 and Untransduced CD4 T cells from donor 32 at a 2:1 T cell: Kuramochi ratio and a final Niraparib concentration of 1.56 μM. […] All data were collected via IncuCyte.
(§2) In ovarian tumors, poly (ADP-ribose) polymerase (PARP) inhibitors, such as Niraparib, are clinically approved drugs which target DNA damage response pathways. Responses are rarely complete, with relapse common after treatment. To induce Ptd-Ser exposure, BRCA-2 mutated Kuramochi cell line was treated with therapeutic doses of the PARP inhibitor Niraparib.

For assay [2], the system named is Kuramochi cells. The assay is described as follows: Kuramochi co-culture with chimeric Tim4 receptor T cells and Niraparib (IncuCyte). In kind it is cell-based. Conditions: Niraparib alone. The method, then:
as §1, §2

Assay [3] relates to A2780 ovarian cancer cells. The assay is described as follows: Viability and phosphatidylserine exposure of A2780 cells treated with PARP inhibitors (annexin V). In kind it is cell-based, human. The method, then:
Viability (FIG. 31A) and phosphatidylserine (PS) exposure (FIG. 31B) of A2780 cells treated with niraparib or olaparib (both at 0.25 to 6 μM) at 96 hours.
(§3) At day 0, media was exchanged and donor T cells from three subjects (FIG. 28) transduced with CER-1234, CER-1236, or control CER-1183 (FIG. 27A) were added at various effector:target ratios to A2780 cells treated with PARPi to assess chimeric Tim4 receptor-T cell activation, cytokine production, proliferation, and cytotoxic responses. Chimeric Tim4 receptor-T cells immunophenotyping and bulk supernatant analysis was performed on day 2 and day 5 following initiation of co-culture.
Phosphatidylserine exposure on A2780 ovarian cancer cells upon treatment with the small molecule PARP inhibitors niraparib or olaparib was evaluated by annexin v staining to determine the appropriate drug dose. Phosphatidylserine targeting Tim-4 CER constructs designed to enhance cytotoxicity and target-dependent tumor cell fragment uptake were engineered. […] CER-1250 has the same intracellular signaling domains as CER1236 but has a mutated IgV domain with AAAA substitution to abrogate phosphatidylserine binding. Niraparib (0.5 μM) and olaparib (1.5 μM) were used to expose phosphatidylserine on the surface of A2780 cells for CER T cell recognition and cytotoxicity, T-cell activation, and cytokine responses were evaluated. Uptake of antigen by CER-1236 T cells was modeled with human papilloma virus E7 antigen-expressing squamous carcinoma (SCC152) TMEM30A phospholipid flippase knockout cells. […] E7 antigen presentation by CER-1236 T cells was assayed by surface expression of HLA-DR, a marker of T cell activation, on autologous HLA-A2-restricted E7 TCR T cells.
The induction of surface phosphatidylserine expression on A2780 ovarian cells treated with the PARP inhibitors olaparib and niraparib was measured by flow cytometry (FC) using annexin V.

The next assay has as its system A2780 cells. The conditions noted are these: compared to untreated. The method, then: FIG. 34B: At 120 hours, the ratio of cells remaining in treated samples compared to untreated A2780 samples was quantified using the incucyte data from FIG. 34A. FIG. 34C: Proliferation of CER T cells in co-culture assays.
as §3
CER T-cell cytotoxic function was evaluated using the Incucyte® live-cell analysis system in co-culture assays with A2780 cells. A2780 cells engineered to constitutively express mCherry were pretreated with 1.5 μM olaparib, 0.5 μM niraparib or no drug for 96 hours. CER T cells (expanded for 6 days after transduction) in T-cell optimizer media containing IL-2, IL-7, and IL-15 were co-cultured with A2780 cells at an effector:target (E:T) ratio of 1:2 in the presence of the same concentrations of olaparib or niraparib.

Regarding `NC(=O)c1cccc2cn(-c3ccc([C@@H]4CCCNC4)cc3)nc12` [Niraparib], the “surface PtdSer (membrane phospholipid symmetry)” value in the assay with Kuramochi cells [1] is “elicits changes in membrane phospholipid symmetry, in a dose dependent manner”. Further, in the assay on Kuramochi cells [2], the “growth of Kuramochi cells” value was “effective in inhibiting growth of Kuramochi cells”. The “effective concentration that killed 25% cells (EC25)” value in assay [3] (A2780 cells) amounted to 500 nM. The “phosphatidylserine exposure on viable A2780 cells” value in assay [3] (subtherapeutic doses, 96 hours) was “induce phosphatidylserine exposure on viable A2780 cells”. In the assay with A2780 cells, the “A2780 cells eliminated, single agent” value is on record as 23%.
